This assay concerns CD2F1 mice, L1210 leukemia ip, survival T/C. Kind of assay: NCI In Vivo Anticancer Drug Screen. Data for tumor model L1210 Leukemia (intraperitoneal) in CD2F1 (CDF1) mice. To be noted: higher = longer survival. The gist of the method:
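Mice carrying a transplanted tumor received test compound or vehicle alone. The value is the measurement in the treated group divided by that in the vehicle-treated control group.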

Where [1] appears, read: endpoint: mean survival time, dose: 100.0 mg/kg/injection, schedule: Q04DX003 (ip), vehicle: saline with Tween-80.
[2] abbreviates: endpoint: mean survival time, dose: 200.0 mg/kg/injection, schedule: Q04DX003 (ip), vehicle: saline with Tween-80.
The mark [3] stands for this setting: endpoint: mean survival time, dose: 400.0 mg/kg/injection, schedule: Q04DX003 (ip), vehicle: saline with Tween-80.
Where [4] appears, read: endpoint: mean survival time, dose: 100.0 mg/kg/injection, schedule: Q01DX009 (ip), vehicle: saline.
Setting [5] is: endpoint: mean survival time, dose: 200.0 mg/kg/injection, schedule: Q01DX009 (ip), vehicle: saline.
Where [6] appears, read: endpoint: mean survival time, dose: 100.0 mg/kg/injection, schedule: Q01DX001 (ip), vehicle: saline with Tween-80.
Setting [7] is: endpoint: mean survival time, dose: 200.0 mg/kg/injection, schedule: Q01DX001 (ip), vehicle: saline with Tween-80.
[8] abbreviates: endpoint: mean survival time, dose: 400.0 mg/kg/injection, schedule: Q01DX009 (ip), vehicle: saline.
Setting [9] is: endpoint: mean survival time, dose: 100.0 mg/kg/injection, schedule: Q04DX003 (ip), vehicle: saline.
[10] abbreviates: endpoint: mean survival time, dose: 200.0 mg/kg/injection, schedule: Q04DX003 (ip), vehicle: saline.
The mark [11] stands for this setting: endpoint: mean survival time, dose: 400.0 mg/kg/injection, schedule: Q04DX003 (ip), vehicle: saline.
Where [12] appears, read: endpoint: mean survival time, dose: 100.0 mg/kg/injection, schedule: Q01DX009 (ip), vehicle: saline with Tween-80.
Where [13] appears, read: endpoint: mean survival time, dose: 75.0 mg/kg/injection, schedule: Q01DX001 (ip), vehicle: saline.

SMILES strings stand for the structures. Several values for one entry are separate records, joined by “and”; a condition that tells them apart may be missing. Equal entries are not always repeated. Inconclusive results and toxic doses are left out.

Regarding `CCOC(=O)C(OCc1ccccc1)(C(=O)N1CCCCCC1=O)C(C)C` (centres undefined), the T/C under setting [1] is 100 % of control, the T/C under setting [2] was 105 % of control and the T/C under setting [3] is 96 % of control.

Consider `O=C1CCC(=O)ON=c2ccc(cc2)=NO1`, for which the T/C by setting is: (endpoint: mean survival time, dose: 50.0 mg/kg/injection, schedule: Q01DX009 (ip), vehicle: saline) 98 % of control; under setting [4], 102 % of control; under setting [5], 90 % of control.

As to `O=C(O)c1ccccc1C(=O)OCC(c1ccccc1)c1ccccc1`, the T/C is 97 % of control under setting [1] and 89 % of control under setting [2].

On to `Nc1nc(N)c(-c2ccc(Cl)cc2)c(/C=C/C=C/c2ccc([N+](=O)[O-])cc2)n1`, for which the T/C is 97 % of control (endpoint: mean survival time, dose: 50.0 mg/kg/injection, schedule: Q01DX001 (ip), vehicle: saline with Tween-80); 92 % of control under setting [6]; 101 % of control under setting [7].

On to `CCOC(=O)c1[nH]c(C)c(C(=O)OCC)c1C`, for which the T/C runs as follows: (endpoint: mean survival time, dose: 100.0 mg/kg/injection, schedule: Q04DX003 (ip), vehicle: Klucel (hydroxypropylcellulose) (HPC)) 103 % of control; (endpoint: mean survival time, dose: 200.0 mg/kg/injection, schedule: Q04DX003 (ip), vehicle: Klucel (hydroxypropylcellulose) (HPC)) 103 % of control; (endpoint: mean survival time, dose: 400.0 mg/kg/injection, schedule: Q04DX003 (ip), vehicle: Klucel (hydroxypropylcellulose) (HPC)) 95 % of control.

For the molecule `NC(=O)C(F)(F)F`, the T/C reads like this: under setting [4], 98 % of control; under setting [5], 98 % of control; under setting [8], 100 % of control.

Regarding `OCCN1CCOCC1`, the T/C reads like this: under setting [4], 103 % of control; under setting [9], 98 % of control; under setting [5], 102 % of control; under setting [10], 95 % of control; under setting [8], 103 % of control; under setting [11], 97 % of control.

Take `COc1ccc(/C=C(\C)[N+](=O)[O-])cc1OC`: the T/C by setting is: (endpoint: mean survival time, dose: 12.5 mg/kg/injection, schedule: Q01DX009 (ip), vehicle: water) 105 % of control; (endpoint: mean survival time, dose: 25.0 mg/kg/injection, schedule: Q01DX009 (ip), vehicle: water) 93 % of control; (endpoint: mean survival time, dose: 50.0 mg/kg/injection, schedule: Q01DX009 (ip), vehicle: water) 93 % of control.

In the case of `CCOC(=O)c1c2cccccc-2c(C#N)c1O`, the T/C is, setting by setting: under setting [6], 93 % of control; under setting [7], 99 % of control; (endpoint: mean survival time, dose: 400.0 mg/kg/injection, schedule: Q01DX001 (ip), vehicle: saline with Tween-80) 96 % of control.

As for `CC(=O)OCC1OC(c2nn(C(C)=O)c(C(N)=O)c2O)C(OC(C)=O)C1OC(C)=O` (centres undefined), the T/C was 153 % of control (endpoint: median survival time, dose: 25.0 mg/kg/injection, schedule: Q01DX005 (ip), vehicle: saline); 166 % of control (endpoint: median survival time, dose: 50.0 mg/kg/injection, schedule: Q01DX005 (ip), vehicle: saline); 96 % of control (endpoint: median survival time, dose: 100.0 mg/kg/injection, schedule: Q01DX005 (ip), vehicle: saline).

`COC1=CC(=O)C(C2CC(=O)c3c(O)cc(O)cc3O2)=CC1=O` (centres undefined): the T/C by setting is: under setting [12], 101 % of control; under setting [1], 100 % of control; under setting [2], 100 % of control; under setting [3], 98 % of control.

Take `O=C1CCc2ccccc21` (tested in a mixture with another compound): the T/C by setting is: (endpoint: mean survival time, dose: 50.0 mg/kg/injection, schedule: Q04DX002 (ip), vehicle: saline with Tween-80) 96 % of control; (endpoint: mean survival time, dose: 100.0 mg/kg/injection, schedule: Q04DX002 (ip), vehicle: saline with Tween-80) 101 % of control; (endpoint: mean survival time, dose: 200.0 mg/kg/injection, schedule: Q04DX002 (ip), vehicle: saline with Tween-80) 96 % of control.

For `C[N+](C)(CC(=O)O)c1ccccc1`, the T/C by setting is: under setting [9], 98 % of control; under setting [10], 96 % of control; under setting [11], 108 % of control.

With `O=C1CCN(Cc2ccccc2)C(=O)N1`, the T/C by setting is: (endpoint: mean survival time, dose: 50.0 mg/kg/injection, schedule: Q01DX009 (ip), vehicle: saline with Tween-80) 97 % of control; under setting [12], 98 % of control; under setting [1], 106 % of control; (endpoint: mean survival time, dose: 200.0 mg/kg/injection, schedule: Q01DX009 (ip), vehicle: saline with Tween-80) 98 % of control; under setting [2], 97 % of control.

Regarding `O=[N+]([O-])c1cc(C(F)(F)F)ccc1F`, the T/C (endpoint: mean survival time, dose: 25.0 mg/kg/injection, schedule: Q04DX003 (ip), vehicle: saline with Tween-80) is 110 % of control; the T/C (endpoint: mean survival time, dose: 50.0 mg/kg/injection, schedule: Q04DX003 (ip), vehicle: saline with Tween-80) is 98 % of control; the T/C under setting [1] is 105 % of control.

`COc1ccc(CCN2C(=O)C=CC2=O)cc1OC`: the T/C (endpoint: mean survival time, dose: 5.0 mg/kg/injection, schedule: Q01DX001 (ip), vehicle: saline) is 94 % of control; the T/C (endpoint: mean survival time, dose: 5.0 mg/kg/injection, schedule: Q01DX009 (ip), vehicle: saline) was 94 % of control; the T/C (endpoint: mean survival time, dose: 10.0 mg/kg/injection, schedule: Q01DX001 (ip), vehicle: saline) was 94 % of control; the T/C (endpoint: mean survival time, dose: 10.0 mg/kg/injection, schedule: Q01DX009 (ip), vehicle: saline) was 97 % of control; the T/C (endpoint: mean survival time, dose: 20.0 mg/kg/injection, schedule: Q01DX001 (ip), vehicle: saline) was 91 % of control.

In the case of `COc1ccc(S(=O)[O-])cc1.C[c-]1[c-][c-][c-][c-]1.[C-]#[O+].[C-]#[O+].[Fe+6]`, the T/C is 95 % of control (endpoint: mean survival time, dose: 6.25 mg/kg/injection, schedule: Q04DX002 (ip), vehicle: other); 114 % of control (endpoint: mean survival time, dose: 12.5 mg/kg/injection, schedule: Q04DX002 (ip), vehicle: other); 100 % of control (endpoint: mean survival time, dose: 25.0 mg/kg/injection, schedule: Q04DX002 (ip), vehicle: other).

As to `CCCCCCCC[n+]1cccc(C(=O)c2ccccc2)c1`, the T/C under setting [13] is 105 % of control.

Turning to `C[Si](C)(C)OSc1ccccc1[N+](=O)[O-]`, the T/C (endpoint: mean survival time, dose: 12.5 mg/kg/injection, schedule: Q01DX009 (ip), vehicle: Klucel (hydroxypropylcellulose) (HPC)) was 95 % of control; the T/C (endpoint: mean survival time, dose: 25.0 mg/kg/injection, schedule: Q01DX009 (ip), vehicle: Klucel (hydroxypropylcellulose) (HPC)) was 97 % of control; the T/C (endpoint: mean survival time, dose: 50.0 mg/kg/injection, schedule: Q01DX009 (ip), vehicle: Klucel (hydroxypropylcellulose) (HPC)) was 100 % of control; the T/C (endpoint: mean survival time, dose: 100.0 mg/kg/injection, schedule: Q01DX009 (ip), vehicle: Klucel (hydroxypropylcellulose) (HPC)) was 93 % of control; the T/C (endpoint: mean survival time, dose: 200.0 mg/kg/injection, schedule: Q01DX009 (ip), vehicle: Klucel (hydroxypropylcellulose) (HPC)) was 92 % of control; the T/C (endpoint: mean survival time, dose: 400.0 mg/kg/injection, schedule: Q01DX009 (ip), vehicle: Klucel (hydroxypropylcellulose) (HPC)) is 91 % of control.

Take `Oc1ccc(O)cc1`: the T/C reads like this: (endpoint: mean survival time, dose: 33.0 mg/kg/injection, schedule: Q01DX009 (ip), vehicle: saline) 102 % of control and 103 % of control; under setting [13], 107 % of control; (endpoint: mean survival time, dose: 75.0 mg/kg/injection, schedule: Q01DX009 (ip), vehicle: saline) 120 % of control; (endpoint: mean survival time, dose: 113.0 mg/kg/injection, schedule: Q01DX009 (ip), vehicle: saline) 96 % of control.

These data come from PubChem BioAssay AID256 (DTP/NCI, 2004).
